Measured values taken from patent publication US11964971B2, “Methods and compositions for modulating splicing” (Skyhawk Therapeutics, Inc., priority 2019, dated 2024).
Like-named read-outs stand apart in the source and are kept apart here.

Experiments:
SMN protein = SMN protein assay (MSD) in SMA patient fibroblasts (GM03813); assay type: cell-based, human
Outline: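 SMA patient fibroblasts GM03813 (7000 cells/well) treated 48 h with compounds from 2.5 μM to 0.6 nM. Lysate SMN protein quantified by MSD immunoassay against an SMN standard curve (1 to 19.5 μg/ml) on each plate, giving absolute amounts.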

[1] = system: MDR1-MDCK cell monolayers; experiment: MDCK-MDR1 permeability assay, blood-brain-barrier penetration potential
Experimental: (§1) Experimental Procedure: MDR1-MDCK cell monolayers are grown to confluence on collagen-coated, microporous membranes in 12-well assay plates. The permeability assay buffer is Hanks' balanced salt solution containing 10 mM HEPES and 15 mM glucose at a pH of 7.4. The buffer in the receiver chamber also contained 1% bovine serum albumin. The dosing solution concentration is 5 μM of test article in the assay buffer. Cell monolayers are dosed on the apical side (A-to-B) or basolateral side (B-to-A) and incubated at 37° C. with 5% CO2 in a humidified incubator. Samples are taken from the donor and receiver chambers at 120 minutes. Each determination is performed in duplicate. The flux of lucifer yellow is also measured post-experimentally for each monolayer to ensure no damage was inflicted to the cell monolayers during the flux period. All samples are assayed by LC-MS/MS using electrospray ionization.
(§2) Analytical Method: Liquid Chromatography • Column: Waters ACQUITY UPLC BEH Phenyl 30×2.1 mm, 1.7 μm • M.P. Buffer: 25 mM ammonium formate buffer, pH 3.5 • Aqueous Reservoir (A): 90% water, 10% buffer • Organic Reservoir (B): 90% acetonitrile, 10% buffer • Flow Rate: 0.7 mL/minute • Gradient Program:
(§3) • Total Run Time: 1.00 minute • Autosampler: 2 μL injection volume • Wash1: water/methanol/2-propanol:1/1/1; with 0.2% formic acid • Wash2: 0.1% formic acid in water • Brain Penetration • Potential Classification: A-B Papp≥3.0 and Efflux Ratio<3.0: High • A-B Papp≥3.0 and 10>Efflux Ratio≥3.0: Moderate • A-B Papp≥3.0 and Efflux Ratio≥10: Low • A-B Papp<3.0: Low

SMN FL and SMN Δ7 = experiment: Quantitative splicing assay (SMN) in SMA patient fibroblasts (GM03813); assay type: cell-based; details: Homo sapiens, Fibroblast; class symbol; read-out: SMN2 Splicing FL EC50 (nM)*
Experimental: Spinal muscular atrophy (SMA) patient fibroblasts (GM03813, Coriell) are plated in 96-well plates at 50,000 cells/well. […] Treated cells are lysed and cDNA synthesized using the Fast Advanced Cells-to-Ct kit (Thermofisher A35378) according to the manufacturer's instructions. 2 μL of each cDNA are used in qPCR reactions. […] Reactions are run in a Quant Studio 6 qPCR instrument with default settings.

[2] = system: MDR1-MDCK cell monolayers; details: dog, MDCK-MDR1, 120 min, 5 μM, pH 7.4
Experimental: as §1, §2, §3

MDR1 = experiment: in vitro; details: dog; for Papp A→B at 120 min, 5 μM: MDCK-MDR1, pH 7.4, MDCK-MDR1: Papp A-B (10^−6, cm/s); for Papp B→A at 120 min, 5 μM: MDCK-MDR1, pH 7.4, MDCK-MDR1: Papp B-A (10^−6, cm/s)
Experimental: as §1, §2, §3

MDR1 (P-gp) = experiment: MDCK-MDR1 permeability assay, blood-brain-barrier penetration potential; details: dog, MDCK-MDR1, pH 7.4, MDCK-MDR1 Efflux Ratio
Experimental: as §1, §2, §3

| Compound | EC50 (SMN protein) | MDCK-MDR1: % Recov A-B (%) ([1]; A-B) | MDCK-MDR1: Papp A-B (10^−6, cm/s) ([1]; A-B) | MDCK-MDR1: % Recov B-A (%) ([1]; B-A) | MDCK-MDR1: Papp B-A (10^−6, cm/s) ([1]; B-A) | MDCK-MDR1 Efflux Ratio ([1]; MDCK-MDR1) | EC50 (SMN FL and SMN Δ7) | MDCK-MDR1: % Recov A-B (%) [2] | MDCK-MDR1: % Recov B-A (%) [2] | Papp A→B at 120 min, 5 μM (MDR1) | Papp B→A at 120 min, 5 μM (MDR1) | efflux ratio at 120 min, 5 μM (MDR1 (P-gp)) |
| --- | --- | --- | --- | --- | --- | --- | --- | --- | --- | --- | --- | --- |
| 2-(5-(((1S,2S,3R,5R)-2-fluoro-8-azabicyclo[3.2.1]octan-3-yl)(methyl)aniino)pyrazin-2-yl)-5-(6-methoxypyrimidin-4-yl)phenol [Compound 34E1] | 101 to 500 nM | 20% | 2.78 10^−6, cm/s | 60% | 8.79 10^−6, cm/s | 3 |  |  |  |  |  |  |
| CN(c1cnc(-c2ccc(-c3cn[nH]c3)cc2O)cn1)[C@@H]1CC2COC[C@H](N2)[C@@H]1F (single isomer, unassigned) [Compound 72E1] | 501 to 10000 nM |  |  |  |  |  | 501 to 10000 nM | 90% | 112% | 8.21 ×10⁻⁶ cm/s | 60.9 ×10⁻⁶ cm/s | 7 |
| CN(c1cnc(-c2ccc(-c3cn[nH]c3)cc2O)cn1)[C@H]1C[C@@H]2COCC(N2)[C@H]1F (single isomer, unassigned) [Compound 72E2] | 101 to 500 nM |  |  |  |  |  | 501 to 10000 nM | 96% | 113% | 9.82 ×10⁻⁶ cm/s | 82.5 ×10⁻⁶ cm/s | 8 |
| COc1cc(-c2ccc(-c3cnc(N(C)[C@H]4C[C@@H]5COCC(N5)[C@H]4F)cn3)c(O)c2)cnn1 (single isomer, unassigned) [Compound 74E2] | 501 to 10000 nM |  |  |  |  |  | 501 to 10000 nM | 92% | 104% | 3.6 ×10⁻⁶ cm/s | 63.2 ×10⁻⁶ cm/s | 18 |
| CN(c1cnc(-c2ccc(C3=CC(=O)NC3)cc2O)cn1)[C@H]1C[C@@H]2CCC(N2)[C@H]1F (single isomer, unassigned) [Compound 78E2] | 16 to 50 nM |  |  |  |  |  | 501 to 10000 nM | 94% | 82% | 0.56 ×10⁻⁶ cm/s | 30.7 ×10⁻⁶ cm/s | 55 |
| COc1cc(-c2ccc(-c3cnc(N(C)[C@@H]4CC5COC[C@H](N5)[C@@H]4F)cn3)c(O)c2)ccn1 (single isomer, unassigned) [Compound 81E1] | 501 to 10000 nM |  |  |  |  |  | 501 to 10000 nM | 28% | 47% | 2.69 ×10⁻⁶ cm/s | 3.08 ×10⁻⁶ cm/s | 1 |
| COc1cc(-c2ccc(-c3cnc(N(C)[C@H]4C[C@@H]5COCC(N5)[C@H]4F)cn3)c(O)c2)ccn1 (single isomer, unassigned) [Compound 81E2] | 501 to 10000 nM |  |  |  |  |  | 101 to 500 nM | 42% | 77% | 2 ×10⁻⁶ cm/s | 3.4 ×10⁻⁶ cm/s | 2 |
| CN(c1cnc(-c2ccc(-c3ccn(C)c(=O)c3)cc2O)cn1)[C@@H]1CC2CCC[C@H](N2)[C@@H]1F (single isomer, unassigned) [Compound 83E1] | 101 to 500 nM |  |  |  |  |  | 101 to 500 nM | 78% | 81% | 0.94 ×10⁻⁶ cm/s | 48.4 ×10⁻⁶ cm/s | 52 |
| CN(c1cnc(-c2ccc(-c3ccn(C)c(=O)c3)cc2O)cn1)[C@H]1C[C@@H]2CCCC(N2)[C@H]1F (single isomer, unassigned) [Compound 83E2] | 16 to 50 nM |  |  |  |  |  | 101 to 500 nM | 106% | 118% | 1.28 ×10⁻⁶ cm/s | 45 ×10⁻⁶ cm/s | 36 |
| CN(c1cnc(-c2ccc(-c3ccn(C)c(=O)c3)cc2O)cn1)[C@@H]1C[C@H]2CCC[C@H](N2)[C@@H]1F [Compound 5E1, 4-(4-(5-(((1S,2S,3R,5R)-2-fluoro-9-azabicyclo[3.3.1]nonan-3-yl)(methyl)amino)pyrazin-2-yl)-3-hydroxyphenyl)-1-methylpyridin-2(1H)-one] | 0.01 to 15 nM |  |  |  |  |  | 51 to 100 nM | 84% | 90% | 2.04 ×10⁻⁶ cm/s | 50.3 ×10⁻⁶ cm/s | 25 |
| CN(c1cnc(-c2ccc(-c3cn[nH]c3)cc2O)cn1)[C@H]1C[C@]2(C)CCC[C@@](C)(N2)[C@H]1F [Compound 23E2, 2-(5-(((1R,2S,3S,5S)-2-fluoro-1,5-dimethyl-9-azabicyclo[3.3.1]nonan-3-yl)(methyl)amino)pyrazin-2-yl)-5-(1H-pyrazol-4-yl)phenol] | 0.01 to 15 nM |  |  |  |  |  | 16 to 50 nM | 39% | 65% | 5.71 ×10⁻⁶ cm/s | 13.6 ×10⁻⁶ cm/s | 2 |
| COc1cc(-c2ccc(-c3cnc(N(C)[C@@H]4C[C@@]5(C)CC[C@](C)(N5)[C@@H]4F)cn3)c(O)c2)cnn1 [Compound 25E1, 2-(5-(((1S,2R,3R,5R)-2-fluoro-1,5-dimethyl-8-azabicyclo[3.2.1]octan-3-yl)(methyl)amino)pyrazin-2-yl)-5-(6-methoxypyridazin-4-yl)phenol] | 501 to 10000 nM |  |  |  |  |  | 501 to 10000 nM | 45% | 64% | 5.6 ×10⁻⁶ cm/s | 39.6 ×10⁻⁶ cm/s | 7 |
| COc1cc(-c2ccc(-c3cnc(N(C)[C@H]4C[C@]5(C)CC[C@@](C)(N5)[C@H]4F)cn3)c(O)c2)cnn1 [Compound 25E2, 2-(5-(((1R,2S,3S,5S)-2-fluoro-1,5-dimethyl-8-azabicyclo[3.2.1]octan-3-yl)(methyl)amino)pyrazin-2-yl)-5-(6-methoxypyridazin4-yl)phenol] | 101 to 500 nM |  |  |  |  |  | 501 to 10000 nM | 42% | 70% | 5.01 ×10⁻⁶ cm/s | 22.9 ×10⁻⁶ cm/s | 5 |
| CN(c1cnc(-c2cc(F)c(-c3cn[nH]c3)cc2O)cn1)[C@@H]1C[C@@]2(C)CC[C@](C)(N2)[C@@H]1F [Compound 57E1, 4-fluoro-2-(5-(((1S,2R,3R,5R)-2-fluoro-1,5-dimethyl-8-azabicyclo[3.2.1]octan-3-yl)(methyl)amino)pyrazin-2-yl)-5-(1H-pyrazol-4-yl)phenol] | 16 to 50 nM |  |  |  |  |  | 101 to 500 nM | 37% | 59% | 5.9 ×10⁻⁶ cm/s | 18.8 ×10⁻⁶ cm/s | 3 |
| CN(c1cnc(-c2cc(F)c(-c3cn[nH]c3)cc2O)cn1)[C@H]1C[C@]2(C)CC[C@@](C)(N2)[C@H]1F [Compound 57E2, 4-fluoro-2-(5-(((1R,2S,3S,5S)-2-fluoro-1,5-dimethyl-8-azabicyclo[3.2.1]octan-3-yl)(methyl)amino)pyrazin-2-yl)-5-(1H-pyrazol-4-yl)phenol] | 0.01 to 15 nM |  |  |  |  |  | 501 to 10000 nM | 35% | 64% | 5.8 ×10⁻⁶ cm/s | 20 ×10⁻⁶ cm/s | 3 |
| CN(c1cnc(-c2cc(F)c(-c3cnn(C)c3)cc2O)cn1)[C@H]1C[C@]2(C)CC[C@@](C)(N2)[C@H]1F [Compound 58E2, 4-fluoro-2-(5-(((1R,2S,3S,5S)-2-fluoro-1,5-dimethyl-8-azabicyclo[3.2.1]octan-3-yl)(methyl)amino)pyrazin-2-yl)-5-(1-methyl-1H-pyrazol-4-yl)phenol] | 0.01 to 15 nM |  |  |  |  |  | 101 to 500 nM | 32% | 69% | 5.98 ×10⁻⁶ cm/s | 16.4 ×10⁻⁶ cm/s | 3 |
| CNC(=O)/C=C/c1cc(O)c(-c2cnc(N(C)[C@H]3C[C@]4(C)CC[C@@](C)(N4)[C@H]3F)cn2)cc1F [Compound 61E2, (E)-3-(2-fluoro-4-(5-(((1R,2S,3S,5S)-2-fluoro-1,5-dimethyl-8-azabicyclo[3.2.1]octan-3-yl)(methyl)amino)pyrazin-2-yl)-5-hydroxyphenyl)-N-methylacrylamide] | 0.01 to 15 nM |  |  |  |  |  | 501 to 10000 nM | 86% | 89% | 0.77 ×10⁻⁶ cm/s | 41.9 ×10⁻⁶ cm/s | 54 |
| CN(c1cnc(-c2ccc(-c3cc[nH]c(=O)c3)cc2O)cn1)[C@H]1C[C@@H]2CC[C@@H](N2)[C@H]1F [Compound 76E2, 4-(4-(5-(((1R,2R,3S,5S)-2-fluoro-8-azabicyclo[3.2.1]octan-3-yl)(methyl)amino)pyrazin-2-yl)-3-hydroxyphenyl)pyridin-2(1H)-one] | 16 to 50 nM |  |  |  |  |  | 101 to 500 nM | 93% | 75% | 0.37 ×10⁻⁶ cm/s | 28.9 ×10⁻⁶ cm/s | 78 |
